Test results as given in article PMC5343891, “Cell Imaging Counting as a Novel Ex Vivo Approach for Investigating Drug-Induced Hepatotoxicity in Zebrafish Larvae” (International Journal of Molecular Sciences, 2017).

Assays:
[1] = system: Tg(fabp10a:DsRed) zebrafish larvae; assay: Hepatotoxicity by visual analysis of liver morphology using fluorescence microscopy; format: in vivo, Zebrafish (Danio rerio); conditions: 6 dpf; for Hepatotoxicity detected: Morphology: vs vehicle control; on Hepatotoxicity detected: Morphology: key: Bold S: statistically significant difference; NS: no statistically significant difference
Description: We observed a range of abnormal liver phenotypes including reduced and enlarged livers (Figure 2). […].
The results are expressed as the percentage of larvae having normal or abnormal liver morphology.
(§1) At 6 dpf treated larvae were anesthetized by 0.5 mM tricaine in a 6 well-plate (Falcon®) and arranged so that they were lying on their right sides with their heads facing left. This enabled us to view the left lateral side of the larvae and the larger lobe of the liver that was scored in a blinded manner under a fluorescence microscope (Leica MZ10F-Dsred channel, 40× magnification, Leica Microsystems, Wetzlar, Germany). Livers were considered abnormal if their typical globular structure underwent gross morphological changes. Images of the livers (including a scale bar) were imported to ImageJ software (National Institutes of Health, Bethesda, MD, USA) for determining the liver size. To that end, the picture was set to scale (functions: analyze, set scale), the liver area extracted (functions: split channel, threshold) and the area calculated (function: analyze particles, settings: size = 0−infinity, circularity = 0.00−1.00).

[2] = system: Tg(fabp10a:DsRed) zebrafish larvae; assay: Hepatotoxicity by size analysis of fluorescent 2D liver images (ImageJ); format: in vivo, Zebrafish (Danio rerio); conditions: for Hepatotoxicity detected: Liver size: 6 dpf, vs vehicle control; for change in liver size: any of the administration routes, vs non-treated animals; on Hepatotoxicity detected: Liver size: key: Bold S: statistically significant difference; NS: no statistically significant difference
Description: Next, the 2D images obtained in the previous section were used to analyze the size of the fluorescent livers by ImageJ software. […].
as §1

[3] = Pharmacokinetics in zebrafish larvae (larval extracts, UHPLC-UV); format: in vivo, Zebrafish (Danio rerio); conditions: 0-24 h post treatment; for course of larval concentration after injection: yolk and pericardial injection at MD
Description: At given time points (0, 2, 6, 12 and 24 h), treated larvae were collected and transferred to 1.5 mL Eppendorf® tubes pre-filled with acid washed glass beads (diameter: 710–1180 µm, Sigma-Aldrich) and 270 µL of extraction medium (1:2 water:methanol, each containing 0.1% formic acid) was added (10 larvae per Eppendorf® tube). Samples were centrifuged for 15 s at 14,100× g (Eppendorf Mini Spin Plus, Hamburg, Germany) to insure high homogenization efficiency. Subsequently, the samples were homogenized with ultrasonication (Diagenode Bioruptor Plus, Seraing, Belgium) at +4 °C and high energy input setting to ensure the highest possible disruption of the cells. The overall treatment time was 15 min spread over 30 cycles of 30 s treatment followed by pauses of 30 s in-between. Six samples were homogenized during each treatment cycle. Subsequently, treated samples were centrifuged at 14,100× g for 15 min and 200 µL of supernatant was transferred to an empty Eppendorf tube (1.5 mL) and stored on ice until all samples were processed. All samples were then placed into a vacuum oven (Model 1410, Sheldon Manufacturing Inc., Cornelius, OR, USA) and evaporated until dry at +45 °C during 45 min. The samples were then reconstituted with a mobile phase-like solution (6% acetonitrile in water), vortexed for 5 s, resuspended at least three times with a micropipette and sonicated (Branson 3510, Danbury, CT, USA) for 15 min. Finally, samples were transferred into amber glass vials (Supelco, Bellefonte, PA, USA) with 250 µL glass inserts (Supelco) for further analysis on UHPLC-UV.
An Agilent 1290 UHPLC system (Agilent, Waldbronn, Germany) consisting of an autosampler, quaternary pump, degasser and DAD-detector (diode array detector) was used for all uptake measurements. […] All calculations concerning the evaluation of recorded data were made in MS Excel (Microsoft Corporation, Seattle, WA, USA). […]
The larval amount of hepatotoxicant (mg/kg) was calculated assuming the weight of a 3 or 4 dpf Tg(fabp10a:DsRed) zebrafish larva to be 0.25 mg.

[4] = system: Tg(fabp10a:DsRed) zebrafish larvae; assay: Lethality in zebrafish larvae: maximum non-toxic drug concentration/dose (MC/MD); format: in vivo, Zebrafish (Danio rerio); conditions: for MC: maximum non-toxic drug concentration: immersion 3-6 dpf, less than 10% larval death at 6 dpf, or highest soluble concentration; for lethality (larval death): immersion, yolk and pericardial injection, up to highest soluble concentration/dose, 6 dpf; for MD: maximum non-toxic drug dose: less than 10% larval death at 6 dpf, or highest dose injectable without precipitation
Text: The results are expressed as percentage of dead larvae relative to the total larvae (mean ± SD).

[5] = system: Tg(fabp10a:DsRed) zebrafish larvae; assay: Hepatotoxicity by quantification of DsRed-labeled hepatocytes using cell imaging counting (CIC); conditions: for change in amount of recovered hepatocytes: any of the administration routes, vs non-treated animals; for Hepatotoxicity detected: number of Hepatocytes (CIC): 6 dpf, vs vehicle control
Description: We then used CIC and quantified ex vivo DsRed-labeled hepatocytes after dispase-digestion of hepatotoxicant-exposed larvae. […] Analysis was performed after three days of treatment (immersion) or three days after treatment (injection), at 6 dpf. A total of 10 and 12 larvae were used individually per condition for immersion and injections, respectively. The experiment was performed in triplicate and data were pooled. […] Means ± SD of the number of hepatocytes per larva are shown.
Compounds tested were dissolved in DMSO (stock solution) and then further diluted in Danieau’s solution with a final concentration of 1% DMSO or diluted with 0.9% NaCl solution (1:1 ratio) to obtain a working solution for immersion and yolk/pericardial injections, respectively. At 3 dpf, hatched Tg(fabp10a:DsRed) larvae were transferred to 24-well plates (Falcon®, Corning, Lasne, Belgium) with each well containing 10 larvae in 1 mL Danieau’s solution and the dissolved drug or the vehicle control for immersion. For yolk injections, and pericardial injections into the bloodstream via the common cardinal veins, 12 larvae were used for each condition, and each larva was injected with 1 nL of solution at 3 dpf.
In order to digest the larvae and separate hepatocytes from the liver, larvae were transferred to 96 well-plates (Falcon®, Corning, Lasne, Belgium) with one larva per well and incubated with 200 µL 2.5 mg dispase/mL DPBS for 4 h. […] The hepatocytes were dispersed by pipetting up and down 20 times with a 1 mL automatic pipette. After digestion, hepatocytes were positioned at the bottom of the well by centrifugation at 200× g (Jouan CR412 centrifuge, Jouan, Saint-Herblain, France) for 15 min.
Fluorescent hepatocytes present in the wells were imaged and counted on an IN Cell Analyzer 2000 using software IN Cell Investigator Developer Toolbox (GE Healthcare, Machelen, Belgium), with a 2×/0.1 NA lens, DsRed fluorescence channel, a 0.1-s exposure time, and the intensity segmentation (172-4095) set to ensure hepatocytes were recognized selectively.
Differences between drug-treated groups and control vehicle control (VHC) regarding numbers of hepatocytes and liver sizes were analyzed for statistical significance using an ANOVA test. Regarding the liver morphology, Fisher’s exact test was used for the analysis. p < 0.05 was considered statistically significant.

[6] = immersion, MC and lower concentrations
[7] = all three administration routes, MC/MD and dilutions

CC(=O)Nc1ccc(O)cc1 [Paracetamol]
Hepatotoxicity detected: Morphology ([1]; immersion, MC): S
Hepatotoxicity detected: Morphology ([1]; immersion, ½ MC): S
abnormal liver morphology ([1]; pericardial injections): no significant toxic effects
Hepatotoxicity detected: Morphology ([1]; yolk injection, MD): S
Hepatotoxicity detected: Morphology ([1]; yolk injection, ½ MD): S
hepatotoxicity by liver size [2, 6]: hepatotoxic only at their MC
Hepatotoxicity detected: Liver size ([2]; immersion, MC): S
hepatotoxicity by liver size ([2]; injected (yolk or pericardial)): exhibited an effect at its MD after yolk administration
Hepatotoxicity detected: Liver size ([2]; yolk injection, MD): S
half-life ([3]; Tg(fabp10a:DsRed), zebrafish, in vivo, after both yolk and pericardial injections (604 mg/kg), read-out: half-life of larval concentration): 6 to 8 h
course of larval concentration after injection [3]: fully excreted or metabolized after 24 h
MC: maximum non-toxic drug concentration [4]: 7500 µM
lethality (larval death) [4]: caused larval death in several of the conditions tested
MD: maximum non-toxic drug dose ([4]; pericardial injection at 3 dpf): 604 ^1 mg/kg
MD: maximum non-toxic drug dose ([4]; yolk injection at 3 dpf): 604 ^1 mg/kg

C[C@@H]1O[C@@H](OC[C@H]2O[C@@H](Oc3c(-c4ccc(O)c(O)c4)oc4cc(O)cc(O)c4c3=O)[C@H](O)[C@@H](O)[C@@H]2O)[C@H](O)[C@H](O)[C@H]1O [Rutin]
abnormal liver morphology [1, 7]: did not induce abnormal liver morphology
change in liver size [2]: did not induce any change in liver size
MC: maximum non-toxic drug concentration [4]: 200 ^1 µM
lethality (larval death) [4]: did not induce lethality
MD: maximum non-toxic drug dose ([4]; pericardial injection at 3 dpf): 150 ^1 mg/kg
MD: maximum non-toxic drug dose ([4]; yolk injection at 3 dpf): 150 ^1 mg/kg
change in amount of recovered hepatocytes [5]: did not induce any change in the amount of recovered hepatocytes

OC[C@H]1O[C@@](CO)(O[C@H]2O[C@H](CO)[C@@H](O)[C@H](O)[C@H]2O)[C@@H](O)[C@@H]1O [Sucrose]
abnormal liver morphology [1, 7]: did not induce abnormal liver morphology
change in liver size [2]: did not induce any change in liver size
MC: maximum non-toxic drug concentration [4]: 8000 ^1 µM
lethality (larval death) [4]: did not induce lethality
MD: maximum non-toxic drug dose ([4]; pericardial injection at 3 dpf): 548 ^1 mg/kg
MD: maximum non-toxic drug dose ([4]; yolk injection at 3 dpf): 548 ^1 mg/kg
change in amount of recovered hepatocytes [5]: did not induce any change in the amount of recovered hepatocytes

CN(C)[C@@H]1C(O)=C(C(N)=O)C(=O)[C@@]2(O)C(O)=C3C(=O)c4c(O)cccc4[C@@](C)(O)[C@H]3C[C@@H]12 [Tetracycline]
abnormal liver morphology [1, 7]: induced abnormal liver morphology in a dose-dependent manner
Hepatotoxicity detected: Morphology ([1]; immersion, MC): S
Hepatotoxicity detected: Morphology ([1]; pericardial injection, MD): S
Hepatotoxicity detected: Morphology ([1]; pericardial injection, ½ MD): S
Hepatotoxicity detected: Morphology ([1]; yolk injection, MD): S
hepatotoxicity by liver size [2, 6]: hepatotoxic only at their MC
Hepatotoxicity detected: Liver size ([2]; immersion, MC): S
course of larval concentration after injection [3]: remained nearly constant
MD: maximum non-toxic drug dose ([4]; pericardial injection at 3 dpf): 384 ^1 mg/kg
MD: maximum non-toxic drug dose ([4]; yolk injection at 3 dpf): 192 mg/kg
Hepatotoxicity detected: number of Hepatocytes (CIC) ([5]; immersion, MC): S
hepatotoxicity by CIC hepatocyte count ([5]; immersion, three concentrations): hepatotoxic effects induced by all three tetracycline concentrations
Hepatotoxicity detected: number of Hepatocytes (CIC) ([5]; immersion, ¼ MC): S
Hepatotoxicity detected: number of Hepatocytes (CIC) ([5]; immersion, ½ MC): S
hepatotoxicity by CIC hepatocyte count ([5]; injected doses (yolk or pericardial)): showed no effects
